For 36 compounds, IC50 results are on record in patent US7902373B2 (Pfizer Inc, priority 2006, dated 2011).

The target of this assay is human recombinant H-PGDS (Homo sapiens, UniProt O60760). The experiment in a line: Fluorescence intensity h-PGDS TBA enzyme assay. In kind it is biochemical. The settings on record: Examples up to 622 (and 3a, 3b).

The structures appear in SMILES notation.

Chain of human recombinant H-PGDS (O60760 whole entry): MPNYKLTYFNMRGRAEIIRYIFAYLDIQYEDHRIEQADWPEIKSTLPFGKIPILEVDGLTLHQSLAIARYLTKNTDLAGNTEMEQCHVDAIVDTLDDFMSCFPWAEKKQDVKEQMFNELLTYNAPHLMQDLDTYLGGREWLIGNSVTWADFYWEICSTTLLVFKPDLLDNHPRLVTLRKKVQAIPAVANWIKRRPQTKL

By IC50 is commonly meant the concentration needed to halve the response being measured. For the compound `O=C(NC1CCN(Cc2ccnc(N3CCOCC3)n2)CC1)c1ccc(-c2cccc(F)c2)nc1` [Example 397, 6-(3-Fluorophenyl)-N-{1-[(2-morpholin-4-ylpyrimidin-4-yl)methyl]piperidin-4-yl}nicotinamide], the 50% inhibitory concentration (IC50) is 1.47 nM.

Regarding `CCN(C)c1ncc2c(n1)CCC(CN1CCC(NC(=O)c3ccc(-c4cccc(F)c4)nc3)CC1)C2` (stereo not drawn) [Example 398, N-[1-({2-[Ethyl(methyl)amino]-5,6,7,8-tetrahydroquinazolin-6-yl}methyl)piperidin-4-yl]-6-(3-fluorophenyl)nicotinamide], the 50% inhibitory concentration (IC50) was 8.56 nM.

Take `O=C(NC1CCN(CC2CCc3nc(CC4CC4)ncc3C2)CC1)c1ccc(-c2cccc(F)c2)nc1` (stereo not drawn) [Example 399, N-(1-{[2-(cyclopropylmethyl)-5,6,7,8-tetrahydroquinazolin-6-yl]methyl}piperidin-4-yl)-6-(3-fluorophenyl)nicotinamide]: the IC50 stood at 1.02 nM.

On to `CC(C)c1ncc2c(n1)CCC(CN1CCC(NC(=O)c3ccc(-c4cccc(F)c4)nc3)CC1)C2` (stereo not drawn) [Example 400, 6-(3-Fluorophenyl)-N-{1-[(2-isopropyl-5,6,7,8-tetrahydroquinazolin-6-yl)methyl]piperidin-4-yl}nicotinamide], for which the IC50 was 1.04 nM.

Consider `Cc1ncc2c(n1)CCC(CN1CCC(NC(=O)c3ccc(-c4cccc(F)c4)nc3)CC1)C2` (stereo not drawn) [Example 401, 6-(3-Fluorophenyl)-N-{1-[(2-methyl-5,6,7,8-tetrahydroquinazolin-6-yl)methyl]piperidin-4-yl}nicotinamide], for which the IC50 was 0.574 nM.

As for `CC(C)(C)c1ncc2c(n1)CCC(CN1CCC(NC(=O)c3ccc(-c4cccc(F)c4)nc3)CC1)C2` (stereo not drawn) [Example 402, N-{1-[(2-tert-Butyl-5,6,7,8-tetrahydroquinazolin-6-yl)methyl]piperidin-4-yl}-6-(3-fluorophenyl)nicotinamide], the concentration for half-maximal inhibition (IC50) amounted to 1.64 nM.

As for `CCCc1ncc2c(n1)CCC(CN1CCC(NC(=O)c3ccc(-c4cccc(F)c4)nc3)CC1)C2` (stereo not drawn) [Example 403, 6-(3-Fluorophenyl)-N-{1-[(2-propyl-5,6,7,8-tetrahydroquinazolin-6-yl)methyl]piperidin-4-yl}nicotinamide], the IC50 was 0.121 nM.

`COCCOc1c(CN2CCC(NC(=O)c3ccc(-c4cccc(F)c4)nc3)CC2)cccc1OC` [Example 404, 6-(3-Fluorophenyl)-N-{1-[3-methoxy-2-(2-methoxyethoxy)benzyl]piperidin-4-yl}nicotinamide]: the IC50 turned out to be 0.469 nM.

`COc1cc(CN2CCC(NC(=O)c3ccc(-c4cccc(F)c4)nc3)CC2)ccc1OCC(F)F` [Example 405, N-{1-[(2,2-Difluoroethoxy)-3-methoxybenzyl]piperidin-4-yl}-6-(3-fluorophenyl)nicotinamide]: the IC50 came out at 0.483 nM.

Regarding `O=C(NC1CCN(Cc2cn3ccccc3n2)CC1)c1ccc(-c2cccc(F)c2)nc1` [Example 406, 6-(3-Fluorophenyl)-N-[1-(imidazo[1,2-a]pyridin-2-ylmethyl)piperidin-4-yl]nicotinamide], the half-inhibitory concentration (IC50) is 2.36 nM.

Consider `O=C(NC1CCN(Cc2nc(-c3ccc(F)cc3)cs2)CC1)c1ccc(-c2cccc(F)c2)nc1` [Example 407, 6-(3-Fluorophenyl)-N-(1-{[4-(4-fluorophenyl)-1,3-thiazol-2-yl]methyl}piperidin-4-yl)nicotinamide], for which the concentration for half-maximal inhibition (IC50) is 5.4 nM.

On to `O=C(NC1CCN(Cc2nc(-c3cccc(F)c3)cs2)CC1)c1ccc(-c2cccc(F)c2)nc1` [Example 408, 6-(3-Fluorophenyl)-N-(1-{[4-(3-fluorophenyl)-1,3-thiazol-2-yl]methyl}piperidin-4-yl)nicotinamide], for which the IC50 was found to be 61.9 nM.

`COc1cccc(-c2csc(CN3CCC(NC(=O)c4ccc(-c5cccc(F)c5)nc4)CC3)n2)c1` [Example 409, 6-(3-Fluorophenyl)-N-(1-{[4-(3-methoxyphenyl)-1,3-thiazol-2-yl]methyl}piperidin-4-yl)nicotinamide]: the IC50 turned out to be 2.25 nM.

Consider `N#Cc1cccc(-c2csc(CN3CCC(NC(=O)c4ccc(-c5cccc(F)c5)nc4)CC3)n2)c1` [Example 410, N-(1-{[4-(3-Cyanophenyl)-1,3-thiazol-2-yl]methyl}piperidin-4-yl)-6-(3-fluorophenyl)nicotinamide], for which the IC50 is 16.3 nM.

Consider `CCc1csc(CN2CCC(NC(=O)c3ccc(-c4cccc(F)c4)nc3)CC2)n1` [Example 411, N-{1-[(4-Ethyl-1,3-thiazol-2-yl)methyl]piperidin-4-yl}-6-(3-fluorophenyl)nicotinamide], for which the half-inhibitory concentration (IC50) turned out to be 1.36 nM.

As for `Cc1sc(CN2CCC(NC(=O)c3ccc(-c4cccc(F)c4)nc3)CC2)nc1-c1ccccc1` [Example 412, 6-(3-Fluorophenyl)-N-{1-[(5-methyl-4-phenyl-13-thiazol-2-yl)methyl]piperidin-4-yl}nicotinamide], the IC50 came to 4.12 nM.

As for `O=C(NC1CCN(Cc2nc3ccccn3c2Br)CC1)c1ccc(-c2cccc(F)c2)nc1` [Example 414, N-{1-[(3-Bromoimidazo[1,2-a]pyridin-2-yl)methyl]piperidin-4-yl}-6-(3-fluorophenyl)nicotinamide], the IC50 came out at 0.35 nM.

As for `Cn1c(CN2CCC(NC(=O)c3ccc(-c4cccc(F)c4)nc3)CC2)nc2cccnc21` [Example 415, 6-(3-Fluorophenyl)-N-{1-[(3-methyl-3H-imidazo[4,5-b]pyridin-2-yl)methyl]piperidin-4-yl}nicotinamide], the IC50 is 1.96 nM.

On to `CC(C)(C)OC(=O)NC1CCC(CN2CCC(NC(=O)c3ccc(-c4cccc(F)c4)nc3)CC2)CC1` (stereo not drawn) [Example 416, tert-Butyl (4-{[4-({[6-(3-fluorophenyl)pyridin-3-yl]carbonyl}amino)piperidin-1-yl]methyl}cyclohexyl)carbamate], for which the IC50 turned out to be 1.68 nM.

Take `CN(C)CCCOc1cccc(CN2CCC(NC(=O)c3ccc(-c4cccc(F)c4)nc3)CC2)c1` [Example 417, N-(1-{3-[3-(Dimethylamino)propoxy]benzyl}piperidin-4-yl)-6-(3-fluorophenyl)nicotinamide]: the IC50 is 1.1 nM.

Consider `O=C(NC1CCN(Cc2cccc3c2OCCO3)CC1)c1ccc(-c2cccc(F)c2)nc1` [Example 418, N-[1-(2,3-Dihydro-1,4-benzodioxin-5-ylmethyl)piperidin-4-yl]-6-(3-fluorophenyl)nicotinamide], for which the IC50 was found to be 0.427 nM.

For `CC(C)(O)c1ccc(CN2CCC(NC(=O)c3ccc(-c4cccc(F)c4)nc3)CC2)c(F)c1` [Example 419, N-[1-(2-Fluoro-4-(1-hydroxy-1-methylethyl)benzyl]piperidin-4-yl}-6-(3-fluorophenyl)nicotinamide], the concentration for half-maximal inhibition (IC50) is 1.03 nM.

For `COCCn1c(CN2CCC(NC(=O)c3ccc(-c4cccc(F)c4)nc3)CC2)nc2ccccc21` [Example 420, 6-(3-Fluorophenyl)-N-(1-{[1-(2-methoxyethyl)-1H-benzimidazol-2-yl]methyl}piperidin-4-yl)nicotinamide], the IC50 stood at 3.4 nM.

For `Cn1c(CN2CCC(NC(=O)c3ccc(-c4cccc(F)c4)nc3)CC2)nc2ncccc21` [Example 421, 6-(3-Fluorophenyl)-N-{1-[(1-methyl-1H-imidazo[4,5-b]pyridin-2-yl)methyl]piperidin-4-yl}nicotinamide], the IC50 was 1.34 nM.

Consider `O=C(NC1CCN(Cc2nc3ccccc3n2C2CC2)CC1)c1ccc(-c2cccc(F)c2)nc1` [Example 422, N-{1-[(1-Cyclopropyl-1H-benzimidazol-2-yl)methyl]piperidin-4-yl}-6-(3-fluorophenyl)nicotinamide], for which the IC50 stood at 2.53 nM.

Regarding `O=C(NC1CCN(Cc2nc3ccccc3n2CCF)CC1)c1ccc(-c2cccc(F)c2)nc1` [Example 423], the IC50 stood at 0.931 nM.

As to `O=C(NC1CCN(Cc2nc3ccccc3n2CF)CC1)c1ccc(-c2cccc(F)c2)nc1` [Example 424], the IC50 came out at 1.3 nM.

Take `COc1ccc(CN2CCC(NC(=O)c3ccc(-c4cccc(F)c4)nc3)CC2)cc1OCC(F)F` [Example 425, N-{1-[3-(2,2-Difluoroethyoxy)-4-methoxybenzyl]piperidin-4-yl}-6-(3-fluorophenyl)nicotinamide]: the IC50 worked out at 2.81 nM.

As for `O=C(NC1CCN(Cc2coc(-c3ccccc3)n2)CC1)c1ccc(-c2cccc(F)c2)nc1` [Example 426, 6-(3-Fluorophenyl)-N-{1-[(2-phenyl-1,3-oxazol-4-yl)methyl]piperidin-4-yl}nicotinamide], the IC50 is 5.53 nM.

With `CCCn1cc(CN2CCC(NC(=O)c3ccc(-c4cccc(F)c4)nc3)CC2)c(C)n1` [Example 427, 6-(3-Fluorophenyl)-N-{1-[(3-methyl-1-propyl-1H-pyrazol-4-yl)methyl]piperidin-4-yl}nicotinamide], the IC50 was 0.656 nM.

Take `CC(C)Oc1ccc(CN2CCC(NC(=O)c3ccc(-c4cccc(F)c4)nc3)CC2)cc1CO` [Example 428, 6-(3-Fluorophenyl)-N-{1-[3-(hydroxymethyl)-4-isopropoxybenzyl]piperidin-4-yl}nicotinamide]: the concentration for half-maximal inhibition (IC50) was 0.926 nM.

For the compound `CC(C)Cc1cc(CN2CCC(NC(=O)c3ccc(-c4cccc(F)c4)nc3)CC2)n[nH]1` [Example 429, 6-(3-Fluorophenyl)-N-{1-[(5-isobutyl-1H-pyrazol-3-yl)methyl]piperidin-4-yl}nicotinamide], the IC50 came to 1.12 nM.

Turning to `O=C(NC1CCN(Cc2ccc3cccc(F)c3n2)CC1)c1ccc(-c2cccc(F)c2)nc1` [Example 430, 6-(3-Fluorophenyl)-N-{1-[(8-fluoroquinolin-2-yl)methyl]piperidin-4-yl}nicotinamide], the IC50 stood at 1.2 nM.

Take `CCn1ccnc1CN1CCC(NC(=O)c2ccc(-c3cccc(F)c3)nc2)CC1` [Example 431, N-{1-[(1-Ethyl-1H-imidazol-2-yl)methyl]piperidin-4-yl}-6-(3-fluorophenyl)nicotinamide]: the IC50 is 0.822 nM.

Consider `Cc1c(CN2CCC(NC(=O)c3ccc(-c4cccc(F)c4)nc3)CC2)nc2ccccn12` [Example 432, 6-(3-Fluorophenyl)-N-{1-[(3-methylimidazo[1,2-a]pyridin-2-yl)methyl]piperidin-4-yl}nicotinamide], for which the IC50 amounted to 0.962 nM.

On to `CC(C)c1csc(CN2CCC(NC(=O)c3ccc(-c4cccc(F)c4)nc3)CC2)n1` [Example 433, 6-(3-Fluorophenyl)-N-{1-[(4-isopropyl-1,3-thiazol-2-yl)methyl]piperidin-4-yl}nicotinamide], for which the IC50 was determined as 0.401 nM.
